Measured values reported in US7138361B2, “Herbicidal heterocycles” (E. I. du Pont de Nemours and Company, priority 2000, dated 2006).

Experiments:
Experiment in all cases: Test C postemergence
Format in all cases: in vivo
[1] = tested on: soybean (Glycine max)
In short: (§1)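 Pre- and postemergence treatments used a non-phytotoxic solvent/surfactant formulation; post-treated plants measured 2 to 18 cm. Greenhouse hold 12–14 d; % control estimated visually relative to controls.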

[2] = tested on: crabgrass (Digitaria sanguinalis)
In short: as §1

[3] = tested on: giant foxtail (Setaria faberii)
In short: as §1

[4] = tested on: kochia (Kochia scoparia)
In short: as §1

[5] = tested on: velvetleaf (Abutilon theophrasti)
In short: as §1

[6] = tested on: yellow nutsedge (Cyperus esculentus)
In short: as §1

[7] = tested on: morningglory (Ipomoea hederacea)
In short: as §1

[8] = tested on: corn (Zea mays)
In short: as §1

[9] = tested on: Surinam grass (Brachiaria decumbens)
In short: as §1

[10] = tested on: goosegrass (Eleusine indica)
In short: as §1

[11] = tested on: common ragweed (Ambrosia elatior)
In short: as §1

[12] = tested on: cocklebur (Xanthium strumarium)
In short: as §1

[13] = tested on: johnsongrass (Sorghum halepense)
In short: as §1

[14] = tested on: woolly cupgrass (Eriochloa villosa)
In short: as §1

[15] = tested on: chickweed (Stellaria media)
In short: as §1

[16] = tested on: pigweed (Amaranthus retroflexus)
In short: as §1

[17] = Rate 125 g/ha, scale 0 to 100, 0 no effect, 100 complete control
[18] = Rate 250 g/ha, scale 0 to 100 (0 no effect, 100 complete control)
[19] = Rate 62 g/ha, scale 0 to 100, 0 no effect, 100 complete control

CCC(C)c1ccn(C2SCN(c3cccc(C(F)(F)F)c3)C2=O)n1 (stereo not shown) [Compound 20]
30: Plant response rating, Velvetleaf [5, 17] | Plant response rating, Velvetleaf [5, 18] | Plant response rating, Ragweed, Common [11, 17] | Plant response rating, Ragweed, Common [11, 18]
60: Plant response rating, Cocklebur [12, 18]
40: Plant response rating, Goosegrass [10, 18]
50: Plant response rating, Chickweed [15, 19] | Plant response rating, Chickweed [15, 17]
20: Plant response rating, Soybean [1, 17] | Plant response rating, Soybean [1, 18] | Plant response rating, Morningglory [7, 17] | Plant response rating, Morningglory [7, 18] | Plant response rating, Goosegrass [10, 17]
70: Plant response rating, Foxtail, Giant [3, 18] | Plant response rating, Kochia [4, 17] | Plant response rating, Kochia [4, 18] | Plant response rating, Chickweed [15, 18] | Plant response rating, Pigweed [16, 17]
0: Plant response rating, Crabgrass [2, 17] | Plant response rating, Crabgrass [2, 18] | Plant response rating, Foxtail, Giant [3, 17] | Plant response rating, Nutsedge [6, 17] | Plant response rating, Nutsedge [6, 18] | Plant response rating, Corn [8, 17] | Plant response rating, Corn [8, 18] | Plant response rating, Surinam grass [9, 19] | Plant response rating, Surinam grass [9, 17] | Plant response rating, Surinam grass [9, 18] | Plant response rating, Johnsongrass [13, 17] | Plant response rating, Cupgrass, Woolly [14, 17] | Plant response rating, Cupgrass, Woolly [14, 18]
80: Plant response rating, Johnsongrass [13, 18] | Plant response rating, Pigweed [16, 18]

CCOc1cc(N2CCC(n3ccc(C(C)(C)C)n3)C2=O)ccc1C (stereo not shown) [Compound 106]
30: Plant response rating, Velvetleaf ([5]; Rate 31 g/ha, scale 0 to 100) | Plant response rating, Cocklebur ([12]; Rate 31 g/ha, scale 0 to 100) | Plant response rating, Cocklebur ([12]; Rate 62 g/ha, scale 0 to 100) | Plant response rating, Cupgrass, Woolly [14, 17]
80: Plant response rating, Soybean [1, 18] | Plant response rating, Cocklebur [12, 17] | Plant response rating, Pigweed [16, 17] | Plant response rating, Pigweed [16, 18]
60: Plant response rating, Velvetleaf ([5]; Rate 62 g/ha, scale 0 to 100) | Plant response rating, Velvetleaf [5, 17]
10: Plant response rating, Foxtail, Giant [3, 18] | Plant response rating, Goosegrass [10, 18] | Plant response rating, Cupgrass, Woolly ([14]; Rate 62 g/ha, scale 0 to 100)
100: Plant response rating, Kochia [4, 18] | Plant response rating, Morningglory [7, 18]
40: Plant response rating, Cupgrass, Woolly [14, 18]
90: Plant response rating, Kochia [4, 17] | Plant response rating, Morningglory ([7]; Rate 31 g/ha, scale 0 to 100) | Plant response rating, Morningglory ([7]; Rate 62 g/ha, scale 0 to 100) | Plant response rating, Morningglory [7, 17] | Plant response rating, Ragweed, Common [11, 17] | Plant response rating, Cocklebur [12, 18]
70: Plant response rating, Soybean ([1]; Rate 31 g/ha, scale 0 to 100) | Plant response rating, Soybean ([1]; Rate 62 g/ha, scale 0 to 100) | Plant response rating, Soybean [1, 17] | Plant response rating, Kochia ([4]; Rate 31 g/ha, scale 0 to 100) | Plant response rating, Kochia ([4]; Rate 62 g/ha, scale 0 to 100) | Plant response rating, Velvetleaf [5, 18] | Plant response rating, Pigweed ([16]; Rate 31 g/ha, scale 0 to 100) | Plant response rating, Pigweed ([16]; Rate 62 g/ha, scale 0 to 100)
0: Plant response rating, Crabgrass ([2]; Rate 31 g/ha, scale 0 to 100) | Plant response rating, Crabgrass ([2]; Rate 62 g/ha, scale 0 to 100) | Plant response rating, Crabgrass [2, 17] | Plant response rating, Crabgrass [2, 18] | Plant response rating, Foxtail, Giant ([3]; Rate 31 g/ha, scale 0 to 100) | Plant response rating, Foxtail, Giant ([3]; Rate 62 g/ha, scale 0 to 100) | Plant response rating, Foxtail, Giant [3, 17] | Plant response rating, Nutsedge ([6]; Rate 31 g/ha, scale 0 to 100) | Plant response rating, Nutsedge ([6]; Rate 62 g/ha, scale 0 to 100) | Plant response rating, Nutsedge [6, 17] | Plant response rating, Nutsedge [6, 18] | Plant response rating, Corn ([8]; Rate 31 g/ha, scale 0 to 100) | Plant response rating, Corn ([8]; Rate 62 g/ha, scale 0 to 100) | Plant response rating, Corn [8, 17] | Plant response rating, Surinam grass ([9]; Rate 31 g/ha, scale 0 to 100) | Plant response rating, Surinam grass ([9]; Rate 62 g/ha, scale 0 to 100) | Plant response rating, Surinam grass [9, 17] | Plant response rating, Surinam grass [9, 18] | Plant response rating, Goosegrass ([10]; Rate 31 g/ha, scale 0 to 100) | Plant response rating, Goosegrass ([10]; Rate 62 g/ha, scale 0 to 100) | Plant response rating, Goosegrass [10, 17] | Plant response rating, Ragweed, Common ([11]; Rate 62 g/ha, scale 0 to 100) | Plant response rating, Johnsongrass ([13]; Rate 31 g/ha, scale 0 to 100) | Plant response rating, Johnsongrass ([13]; Rate 62 g/ha, scale 0 to 100) | Plant response rating, Johnsongrass [13, 17] | Plant response rating, Johnsongrass [13, 18] | Plant response rating, Cupgrass, Woolly ([14]; Rate 31 g/ha, scale 0 to 100)
20: Plant response rating, Corn [8, 18]
